Test results as given in BindingDB's records for doi:10.1016/s0028-3908(00)00022-8 (University of Frankfurt, 2000).

Columns and labels:
ATP receptor [1] = molecular target: T1, ATP receptor (Xenopus sp., UniProt Q64F95)
T1 sequence (Q64F95 whole entry): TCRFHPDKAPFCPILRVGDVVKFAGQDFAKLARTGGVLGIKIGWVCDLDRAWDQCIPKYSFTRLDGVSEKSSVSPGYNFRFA

ATP receptor [2] = molecular target: T2, ATP receptor (Xenopus sp., UniProt F6VH38)
T2 sequence (F6VH38 whole entry): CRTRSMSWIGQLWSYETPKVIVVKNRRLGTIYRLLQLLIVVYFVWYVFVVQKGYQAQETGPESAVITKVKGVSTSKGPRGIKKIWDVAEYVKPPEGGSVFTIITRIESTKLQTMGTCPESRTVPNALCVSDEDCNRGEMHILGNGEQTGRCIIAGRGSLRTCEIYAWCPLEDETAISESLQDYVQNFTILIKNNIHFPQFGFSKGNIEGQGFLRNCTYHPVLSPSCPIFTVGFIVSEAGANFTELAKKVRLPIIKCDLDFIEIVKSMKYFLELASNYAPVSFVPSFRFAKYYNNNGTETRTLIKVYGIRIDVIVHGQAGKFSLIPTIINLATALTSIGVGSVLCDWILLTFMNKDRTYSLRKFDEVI

P2X purinoceptor = molecular target: T3, P2X purinoceptor (Xenopus sp., UniProt Q9DDP1)
T3 sequence (Q9DDP1 whole entry): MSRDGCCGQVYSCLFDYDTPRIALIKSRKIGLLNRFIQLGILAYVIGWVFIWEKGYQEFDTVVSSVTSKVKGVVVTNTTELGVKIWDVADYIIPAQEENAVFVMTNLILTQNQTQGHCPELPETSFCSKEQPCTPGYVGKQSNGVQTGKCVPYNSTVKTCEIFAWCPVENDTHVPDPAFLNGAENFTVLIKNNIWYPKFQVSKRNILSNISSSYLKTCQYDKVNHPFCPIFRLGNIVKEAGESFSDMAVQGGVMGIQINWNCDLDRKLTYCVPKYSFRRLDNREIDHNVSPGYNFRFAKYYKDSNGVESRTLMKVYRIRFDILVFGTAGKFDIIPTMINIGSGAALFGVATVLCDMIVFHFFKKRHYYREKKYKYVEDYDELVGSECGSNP

Ki (ATP receptor [1]): 1620 nM
Ki (ATP receptor [2]): 770 nM
Ki (P2X purinoceptor): > 10000 nM
Compound: O=C(Nc1ccc(C(=O)Nc2ccc(C(=O)Nc3ccc(S(=O)(=O)O)c4cc(S(=O)(=O)O)cc(S(=O)(=O)O)c34)cc2)cc1)Nc1ccc(C(=O)Nc2ccc(C(=O)Nc3ccc(S(=O)(=O)O)c4cc(S(=O)(=O)O)cc(S(=O)(=O)O)c34)cc2)cc1 [CAS_5311315]
